This passage reports IC50 results from patent US20150299143A1, “SUBSTITUTED TRIAZOLE AND IMIDAZOLE COMPOUNDS” (HOFFMANN-LA ROCHE INC., priority 2012, published 2015).

SMILES strings stand for the structures. Where only a bound is given, the exact number is not on record here.

One test relates to β 2c/2i (trypsin-like). Put plainly: Cell-Based Proteasome subunit activity/selectivity assay, β2c/2i, substrate (KQL)2Rh110. The conditions noted are these: Ramos cells; substrate (KQL)2Rh110 (β2c/2i); highest concentration tested 20 μM. An excerpt: (§1) Cell-Based Proteasome Activity/Selectivity Assay
(§2) The Cell-Based Proteasome subunit activity/selectivity assay was a panel of 5 fluorogenic assays that independently measured the activity of β5c or β 5i (chymotrypsin-like activity), β 2c/2i (trypsin-like), and β 1c or β 1i (caspase-like) protease activity associated with the proteasome complex in cultured cells. Specifically, the following substrates were used for respective subunit activities: β 1i (PAL)2Rh110, β 1c: (LLE)2 Rh110, β 2c/2i: (KQL)2Rh110, β 5c: (WLA)2Rh110, β 5i: (ANW)2Rh110. The following procedure was followed:
(§3) Added 0.5 μl of 100× 4-fold serial diluted test compounds or DMSO to each well. Highest concentration of compound tested was 20 μM, thus compound serial dilution started from […]. Incubated for 30 minutes at 37° C. Then equilibrated at room temperature for 15 minutes. […] Shaked for one minute @ 700 rpm. Incubated for 120 min at room temperature. Then read the plates with an Envision multilabel plate reader (PerkinElmer) with 500 nm excitation/519 nm emission.

The target of test [1] is T1, β 5i (chymotrypsin-like activity) (Homo sapiens, UniProt P20618+P28062).
T1 construct: protease activity associated with the proteasome complex in cultured cells; endogenous in cells; host or cells: Ramos cells
Put plainly: Cell-Based Proteasome subunit activity/selectivity assay, β5i, substrate (ANW)2Rh110. Conditions: Ramos cells; substrate (ANW)2Rh110 (β5i); highest concentration tested 20 μM; read-out: Ic50:ramos:ac-(anw)2-r110.
Source text: as §1, §2, §3

A further test has as its target T2, β 1c (caspase-like) (Homo sapiens, UniProt P28072+Q99436).
T2 construct: protease activity associated with the proteasome complex in cultured cells; endogenous in cells; host or cells: Ramos cells
In words: Cell-Based Proteasome subunit activity/selectivity assay, β1c, substrate (LLE)2Rh110. The conditions noted are these: Ramos cells; substrate (LLE)2Rh110 (β1c); highest concentration tested 20 μM; read-out: Ic50:ramos:rh110-(lle)2.
Source text: as §1, §2, §3

The target in test [2] is T3, β5c (chymotrypsin-like activity) (Homo sapiens, UniProt P20618+P28074).
T3 construct: protease activity associated with the proteasome complex in cultured cells; endogenous in cells; host or cells: Ramos cells
In words: Cell-Based Proteasome subunit activity/selectivity assay, β5c, substrate (WLA)2Rh110. Conditions: Ramos cells; substrate (WLA)2Rh110 (β5c); highest concentration tested 20 μM; read-out: Ic50:ramos:rh110-(wla)2.
Source text: as §1, §2, §3

The next test has as its target T4, β 1i (caspase-like) (Homo sapiens, UniProt P28065+P40306).
T4 construct: protease activity associated with the proteasome complex in cultured cells; endogenous in cells; host or cells: Ramos cells
Put plainly: Cell-Based Proteasome subunit activity/selectivity assay, β1i, substrate (PAL)2Rh110. The conditions noted are these: Ramos cells; substrate (PAL)2Rh110 (β1i); highest concentration tested 20 μM; read-out: Ic50:ramos:rh110-(pal)2.
Source text: as §1, §2, §3

Regarding `CCc1ccc(C(C#N)NC(=O)c2cn(CCNC(=O)c3cc(OC)ccc3F)nn2)cc1` (stereo not shown) [Example 32, 1-[2-(2-Fluoro-5-methoxy-benzoylamino)-ethyl]-1H-[1,2,3]triazole-4-carboxylic acid [cyano-(4-ethyl-phenyl)-methyl]-amide], the IC50 is ≥ 20 µM with β 2c/2i (trypsin-like); 0.682 µM in test [1]; ≥ 20 µM at β 1c (caspase-like); ≥ 20 µM in test [2]; ≥ 20 µM on β 1i (caspase-like).
Regarding `COc1ccc(C(=O)NCCn2cc(C(=O)NC(C#N)c3ccc(OCc4ccccc4)cc3)nn2)c(OC)c1OC` (stereo not shown) [Example 56, 1-[2-(2,3,4-Trimethoxy-benzoylamino)-ethyl]-1H-[1,2,3]triazole-4-carboxylic acid [(4-benzyloxy-phenyl)-cyano-methyl]-amide], the IC50 was ≥ 20 µM in the test with β 2c/2i (trypsin-like); 5.68 µM in test [1]; 19.1 µM at β 1c (caspase-like); 8.3 µM in test [2]; ≥ 20 µM at β 1i (caspase-like).
`CCc1ccc(C(C#N)NC(=O)c2cn(CCNC(=O)c3cc(Cl)cc(C)n3)nn2)cc1` (stereo not shown) [Example 21, 4-Chloro-6-methyl-pyridine-2-carboxylic acid [2-(4-{[cyano-(4-ethyl-phenyl)-methyl]-carbamoyl}-[1,2,3]triazol-1-yl)-ethyl]-amide]: the concentration for half-maximal inhibition (IC50) with β 2c/2i (trypsin-like) was ≥ 20 µM; in test [1] it was 2.88 µM; at β 1c (caspase-like), ≥ 20 µM; in test [2], ≥ 20 µM.
In the case of `COc1ccc(C(=O)NCCn2cc(C(=O)NC(C#N)c3ccc4ccccc4c3)nn2)c(OC)c1OC` (stereo not shown) [Example 49, 1-[2-(2,3,4-Trimethoxy-benzoylamino)-ethyl]-1H-[1,2,3]triazole-4-carboxylic acid (cyano-naphthalen-2-yl-methyl)-amide], the 50% inhibitory concentration (IC50) with β 2c/2i (trypsin-like) is ≥ 20 µM; in test [1], 0.338 µM; at β 1c (caspase-like) it was 19 µM; in test [2], 12.5 µM.
Consider `N#CC(NC(=O)c1cn(CCNC(=O)c2cc(Cl)ccc2Cl)nn1)c1ccc(C(F)(F)F)cc1` (stereo not shown) [Example 69, 1-[2-(2,5-Dichloro-benzoylamino)-ethyl]-1H-[1,2,3]triazole-4-carboxylic acid [cyano-(4-trifluoromethyl-phenyl)-methyl]-amide], for which the half-maximal inhibitory concentration (IC50) was ≥ 20 µM in the test on β 2c/2i (trypsin-like), 3.79 µM in test [1], ≥ 20 µM in test [2] and ≥ 20 µM at β 1i (caspase-like).
As for `COc1ccc(C(=O)NCCn2cc(C(=O)NC(C#N)c3ccc(C4CC4)cc3)nn2)c(OC)c1OC` (stereo not shown) [Example 58, 1-[2-(2,3,4-Trimethoxy-benzoylamino)-ethyl]-1H-[1,2,3]triazole-4-carboxylic acid [cyano-(4-cyclopropyl-phenyl)-methyl]-amide], the half-inhibitory concentration (IC50) in the test with β 2c/2i (trypsin-like) is ≥ 20 µM; in test [1] it was 0.159 µM; in test [2] it was ≥ 20 µM; on β 1i (caspase-like) it was ≥ 20 µM.
For the compound `CCc1ccc(C(C#N)NC(=O)c2cn(CCNC(=O)c3ccc(OC)c(OC)c3OC)nn2)cc1` (single isomer, unassigned) [Example 51], the IC50 was 0.604 µM in test [1] and ≥ 20 µM at β 1i (caspase-like).
For `CCc1ccc(C(C#N)NC(=O)c2cn(CCNC(=S)c3ccc(OC)c(OC)c3OC)nn2)cc1` (stereo not shown) [Example 86, 1-[2-(2,3,4-Trimethoxy-thiobenzoylamino)-ethyl]-1H-[1,2,3]triazole-4-carboxylic acid [cyano-(4-ethyl-phenyl)-methyl]-amide], the half-inhibitory concentration (IC50) in the test on β 2c/2i (trypsin-like) is ≥ 20 µM; in test [1], 0.274 µM; in test [2], 16.3 µM; on β 1i (caspase-like), ≥ 20 µM.
As for `CCc1ccc(C(C#N)NC(=O)c2cn(CCNC(=O)c3ncccc3OC)nn2)cc1` (stereo not shown) [Example 17, 3-Methoxy-pyridine-2-carboxylic acid [2-(4-{[cyano-(4-ethyl-phenyl)-methyl]-carbamoyl}-[1,2,3]triazol-1-yl)-ethyl]-amide], the IC50 in the test on β 2c/2i (trypsin-like) was ≥ 20 µM; in test [1] it was 9.93 µM; on β 1c (caspase-like), ≥ 20 µM; in test [2] it was ≥ 20 µM.
With `CCc1ccc(C(C#N)NC(=O)c2cn(CCNC(=O)c3ccc(OC)nn3)nn2)cc1` (stereo not shown) [Example 40, 6-Methoxy-pyridazine-3-carboxylic acid [2-(4-{[cyano-(4-ethyl-phenyl)-methyl]-carbamoyl}-[1,2,3]triazol-1-yl)-ethyl]-amide], the IC50 with β 2c/2i (trypsin-like) was ≥ 20 µM; in test [1], 4.06 µM; in test [2], ≥ 20 µM; at β 1i (caspase-like) it was ≥ 20 µM.
Take `CCc1ccc(C(C#N)NC(=O)c2cn(CCNC(=O)c3ccc(SC)cc3OC)nn2)cc1` (stereo not shown) [Example 19, 1-[2-(2-Methoxy-4-methylsulfanyl-benzoylamino)-ethyl]-1H-[1,2,3]triazole-4-carboxylic acid [cyano-(4-ethyl-phenyl)-methyl]-amide]: the IC50 in the test on β 2c/2i (trypsin-like) is ≥ 20 µM; in test [1], 0.111 µM; on β 1c (caspase-like), ≥ 20 µM; in test [2], 12 µM.
With `COc1ccc(C(=O)NCCn2cc(C(=O)NC(C#N)c3ccc4sccc4c3)nn2)c(OC)c1OC` (stereo not shown) [Example 48, 1-[2-(2,3,4-Trimethoxy-benzoylamino)-ethyl]-1H-[1,2,3]triazole-4-carboxylic acid (benzo[b]thiophen-5-yl-cyano-methyl)-amide], the concentration for half-maximal inhibition (IC50) was ≥ 20 µM in the test on β 2c/2i (trypsin-like), 0.201 µM in test [1], ≥ 20 µM on β 1c (caspase-like) and 16.3 µM in test [2].
In the case of `CCc1ccc(C(C#N)NC(=O)c2cn(CCNC(=O)c3cc(C(F)(F)F)ccc3OC)nn2)cc1` (stereo not shown) [Example 39, 1-[2-(2-Methoxy-5-trifluoromethyl-benzoylamino)-ethyl]-1H-[1,2,3]triazole-4-carboxylic acid [cyano-(4-ethyl-phenyl)-methyl]-amide], the IC50 with β 2c/2i (trypsin-like) is ≥ 20 µM; in test [1], 0.517 µM; in test [2] it was ≥ 20 µM; on β 1i (caspase-like), ≥ 20 µM.
As to `CCc1ccc(C(C#N)NC(=O)c2cn(CCNC(=O)c3cccc4c3OCCO4)nn2)cc1` (stereo not shown) [Example 18, 1-{2-[(2,3-Dihydro-benzo[1,4]dioxine-5-carbonyl)-amino]-ethyl}-1H-[1,2,3]triazole-4-carboxylic acid [cyano-(4-ethyl-phenyl)-methyl]-amide], the half-inhibitory concentration (IC50) in the test on β 2c/2i (trypsin-like) was ≥ 20 µM; in test [1] it was 0.482 µM; at β 1c (caspase-like), ≥ 20 µM; in test [2], ≥ 20 µM.
For the compound `CCc1ccc(C(C#N)NC(=O)c2cn(CCNC(=O)c3cccc(OC)c3OC)nn2)cc1` (stereo not shown) [Example 16, 1-[2-(2,3-Dimethoxy-benzoylamino)-ethyl]-1H-[1,2,3]triazole-4-carboxylic acid [cyano-(4-ethyl-phenyl)-methyl]-amide], the half-inhibitory concentration (IC50) with β 2c/2i (trypsin-like) is ≥ 20 µM; in test [1], 1.12 µM; on β 1c (caspase-like), ≥ 20 µM; in test [2], ≥ 20 µM.
For `CCc1ccc(C(C#N)NC(=O)c2cn(CCNC(=O)c3ccc(Cl)cc3OC)nn2)cc1` (stereo not shown) [Example 20, 1-[2-(4-Chloro-2-methoxy-benzoylamino)-ethyl]-1H-[1,2,3]triazole-4-carboxylic acid [cyano-(4-ethyl-phenyl)-methyl]-amide], the 50% inhibitory concentration (IC50) with β 2c/2i (trypsin-like) is ≥ 20 µM; in test [1], 0.196 µM; at β 1c (caspase-like), ≥ 20 µM; in test [2] it was ≥ 20 µM.

One may read the IC50 as the midpoint of a concentration-inhibition curve.
